Literature values in patent US9457044B2, “Methods and compositions for wound healing” (CoDa Therapeutics, Inc., priority 2006, dated 2016).

Settings: cited from earlier work

Q: With PDGF as the molecule, how does the “effective dose when applied topically” value (U.S. Pat. No. 4,861,757) read?
A: ≥ 5 ng/mm^2

B1: KGF: keratinocyte growth factor (protein, UniProt P21781 32-194, looked up)
Fibroblast growth factor 7: CNDMTPEQMATNVNCSSPERHTRSYDYMEGGDIRVRRLFCRTQWYLRIDKRGKVKGTQEMKNNYNIMEIRTVAVGIVAIKGVESEFYLAMNKEGKLYAKKECNEDCNFKELILENHYNTYASAKWTHNGGEMFVALNQKGIPVRGKKTKKEQKTAHFLPMAIT
Q: For B1, which “concentration effective for wound healing by topical application to epithelial tissue” value (about 50 μl, Sotozono et al. 1995) is on record?
A: about 5 μg/ml
